Legend:
[1] = test system: p190- and p210-BCR-ABL1 expressing Ba/F3 cells; assay: Cell survival, trypan blue exclusion; assay type: cell-based, murine; details: Mus musculus, BaF3; read-out: half maximal effective concentration (EC50), survival
Description: (B) IODVA1-dependent survival curves of empty vector (red circles) or p190-BCR-ABL1 (black circles) expressing Ba/F3 cells and of Nalm-1 cells. […] (C) p190-BCR-ABL1 (grey line) or Mieg3 (black line) expressing Ba/F3 cells were allowed to grow for 1 day, treated with IODVA1 (IO1, 1 μM) for 1 day, and washed (black arrow). Cells were counted for 7 days using trypan blue exclusion. (D) Ba/F3 cells stably expressing p190-BCR-ABL1 were subjected to colony formation assay in soft agar (0.25% Noble Agar in RPMI/FBS/IL-3) in the presence of DMSO or IODVA1 (1 or 10 μM). Colonies were allowed to form for 10 days then stained with iodonitrotetrazolium (1 mg/mL). […] (E) Leukemic burden (%) of treated mice before treatment (left upper panel) and at the indicated treatment time was analyzed by flow cytometry of bone marrow aspirates as population containing B220^+/CD43^+ pro-B cells. […]
IODVA1 specifically targets BCR-ABL B-ALL cells in vitro. […] We then assessed survival of p190-BCR-ABL-transformed CD34^+ cells in the presence of IODVA1 by trypan blue exclusion. […]
MDA-MB-231 cells were maintained in IMEM (Invitrogen) supplemented with 10% FBS, 1% penicillin/streptomycin, and 1% amphotericin B. B a/F3 cells were cultured in RPMI (GIBCO) supplemented with 10% FBS and IL-3 (10 ng/ml). […] Cell viability was assessed by trypan blue exclusion assay as previously described. […]

[2] = test system: phosphorylated Vav3 (pY173) in MDA-MB-231 cells; assay: Immunoblot of phosphorylated Vav3 (pY173); assay type: cell-based, human; details: 3 μM, 15 min
Description: FIG. 16: IODVA1 decreases levels of pVav3 in in vitro and in vivo models of triple negative breast cancer. (A) Immunoblot and quantification of Vav3 protein in lysates of MDA-MB-231 triple negative breast cancer cells stably expressing scrambled or Vav3-targeting shRNAs. Viability of the MDA-MB-231 cells stably expressing shVav3 in the presence of IODVA1 (0-1 μM). Cells were grown in the presence of IODVA1 and counted by trypan blue exclusion at the indicated time points. (B) MDA-MB-231 cells were incubated with IODVA1 (3 μM) for 15 min and the levels of phosphorylated Vav3 (pY173) were assessed by immunoblotting. (C) Immunohistochemical staining of phosphorylated Vav3 in tissue derived from MDA-MB-231 xenografts treated with vehicle control or IODVA1.
Next, we tested if IODVA1 is effective in another model of Vav3-dependent cancer. We chose MDA-MB-231 triple negative breast cancer cells because these cells express high endogenous levels of Vav3 (Chen, 2015) and because Vav3 is an acknowledged target in breast cancer (Chen, 2015; Lee, 2008; Aguilar, 2014; Citterio, 2012; Lorenzo-Martin. 2019). […] Second, we incubated MDA-MB-231 cells with IODVA1 (3 μM) for 15 min and analyzed the levels of phosphorylated Vav3 (pY173) by immunoblotting. […]

For `OC1(c2ccccn2)N=C(Nc2nc3ccccc3[nH]2)N=C1c1ccccn1` (centres unmarked) [IODVA1, (Z)-2-((1H-benzo[d]imidazol-2-yl)imino)-4,5-di(pyridin-2-yl)-2,5-dihydro-1H-imidazol-5-ol], the EC50 [1] was 380 nM and the pY173 signal [2] was “significant decrease”.

Source: patent US11564913B2, “Compositions and methods for treating cancer” (Children's Hospital Medical Center, priority 2019, dated 2023)
